Data reported in patent US20230107642A1 (Erasca, Inc., priority 2020, published 2023).

Target: T1, Cys12 of the KRAS 4B G12C protein (Homo sapiens, UniProt P01116, G12C)
T1 construct: This protein contained 188 amino acids in total, including an N-terminal 6-Histidine tag; made in house; host or cells: E. coli BL21
Test: In vitro covalent adduct formation (CAF) assay, LC-MS intact mass
Format: binding
Conditions: for % CAF 10 uM @ 60 min: 10 uM compound, 60 min incubation
Method in brief: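 Percent covalent modification from intact-mass LC-MS, by relative free versus adducted protein (adducts within 1 Da of expected mass). Reaction: 10 μM compound with 5 μM E. coli-expressed, GDP-exchanged KRAS 4B G12C in TBS pH 7.4, 4% DMSO, 1 h at 22° C.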

SMILES | CAF (% binding after 60 min) [%] | % CAF 10 uM @ 60 min [%]
C=CC(=O)N1[C@H](C)CN(c2nc(=O)n3c4c(c(-c5cc(Cl)c(F)cc5F)c(C(F)(F)F)cc24)SC[C@@H](OCCOC)C3)C[C@@H]1C [Example 1031, (3S)-8-((3S,5R)-4-acryloyl-3,5-dimethylpiperazin-1-yl)-11-(5-chloro-2,4-difluorophenyl)-3-(2-methoxyethoxy)-10-(trifluoromethyl)-3,4-dihydro-2H,6H-[1,4]thiazepino[2,3,4-ij]quinazolin-6-one] | 95 | –
C=CC(=O)N1[C@H](C)CN(c2nc(=O)n3c4c(c(-c5ccc(F)cc5)c(C(F)(F)F)cc24)SC[C@@H](N)C3)C[C@@H]1C [Example 1032, (S)-8-((3S,5R)-4-acryloyl-3,5-dimethylpiperazin-1-yl)-3-amino-11-(4-fluorophenyl)-10-(trifluoromethyl)-3,4-dihydro-2H,6H-[1,4]thiazepino[2,3,4-ij]quinazolin-6-one] | 92 | –
C=CC(=O)N1[C@H](C)CN(c2nc(=O)n3c4c(c(-c5ccc(F)cc5)c(C(F)(F)F)cc24)SC[C@@H](OCCN(C)C)C3)C[C@@H]1C [Example 1033, (S)-8-((3S,5R)-4-acryloyl-3,5-dimethylpiperazin-1-yl)-3-(2-(dimethylamino)ethoxy)-11-(4-fluorophenyl)-10-(trifluoromethyl)-3,4-dihydro-2H,6H-[1,4]thiazepino[2,3,4-ij]quinazolin-6-one] | 96 | –
C=CC(=O)N1[C@H](C)CN(c2nc(=O)n3c4c(c(-c5ccc(F)cc5F)c(C(F)(F)F)cc24)SC[C@@H](OCCN(C)C)C3)C[C@@H]1C [Example 1034, (3S)-8-((3S,5R)-4-acryloyl-3,5-dimethylpiperazin-1-yl)-11-(2,4-difluorophenyl)-3-(2-(dimethylamino)ethoxy)-10-(trifluoromethyl)-3,4-dihydro-2H,6H-[1,4]thiazepino[2,3,4-ij]quinazolin-6-one] | 97 | –
C=CC(=O)N1[C@H](C)CN(c2nc(=O)n3c4c(c(-c5ccc(F)c(Cl)c5)c(C(F)(F)F)cc24)SC[C@@H](OCCN(C)C)C3)C[C@@H]1C [Example 1035, (S)-8-((3S,5R)-4-acryloyl-3,5-dimethylpiperazin-1-yl)-11-(3-chloro-4-fluorophenyl)-3-(2-(dimethylamino)ethoxy)-10-(trifluoromethyl)-3,4-dihydro-2H,6H-[1,4]thiazepino[2,3,4-ij]quinazolin-6-one] | 97 | –
C=CC(=O)N1[C@H](C)CN(c2nc(=O)n3c4c(c(-c5cc(Cl)c(F)cc5F)c(C(F)(F)F)cc24)SC[C@@H](OCCN(C)C)C3)C[C@@H]1C [Example 1036, (3S)-8-((3S,5R)-4-acryloyl-3,5-dimethylpiperazin-1-yl)-11-(5-chloro-2,4-difluorophenyl)-3-(2-(dimethylamino)ethoxy)-10-(trifluoromethyl)-3,4-dihydro-2H,6H-[1,4]thiazepino[2,3,4-ij]quinazolin-6-one] | 97 | –
C=CC(=O)N1CCN(c2nc(=O)n3c4c(c(-c5ccc(F)cc5)c(C(F)(F)F)cc24)SC[C@H](OC)C3)CC1 [Example 1037, (R)-8-(4-acryloylpiperazin-1-yl)-11-(4-fluorophenyl)-3-methoxy-10-(trifluoromethyl)-3,4-dihydro-2H,6H-[1,4]thiazepino[2,3,4-ij]quinazolin-6-one] | 96 | –
C=CC(=O)N1CCN(c2nc(=O)n3c4c(c(-c5ccc(F)cc5)c(C(F)(F)F)cc24)SC[C@@H](OC)C3)CC1 [Example 1038, (S)-8-(4-acryloylpiperazin-1-yl)-11-(4-fluorophenyl)-3-methoxy-10-(trifluoromethyl)-3,4-dihydro-2H,6H-[1,4]thiazepino[2,3,4-ij]quinazolin-6-one] | 97 | –
C=CC(=O)N1[C@H](C)CN(c2nc(=O)n3c4c(c(-c5ccc(F)cc5)c(Cl)cc24)SC[C@H](OC)C3)C[C@@H]1C [Example 1039, (R)-8-((3S,5R)-4-acryloyl-3,5-dimethylpiperazin-1-yl)-10-chloro-11-(4-fluorophenyl)-3-methoxy-3,4-dihydro-2H,6H-[1,4]thiazepino[2,3,4-ij]quinazolin-6-one] | 96 | –
C=CC(=O)N1[C@H](C)CN(c2nc(=O)n3c4c(c(-c5ccc(F)cc5)c(Cl)cc24)SC[C@@H](OC)C3)C[C@@H]1C [Example 1040, (S)-8-((3S,5R)-4-acryloyl-3,5-dimethylpiperazin-1-yl)-10-chloro-11-(4-fluorophenyl)-3-methoxy-3,4-dihydro-2H,6H-[1,4]thiazepino[2,3,4-ij]quinazolin-6-one] | 96 | –
C=CC(=O)N1CCN(c2nc(=O)n3c4c(c(-c5ccc(F)c(Cl)c5)c(C(F)(F)F)cc24)SC[C@H](OC)C3)CC1 [Example 1041, (R)-8-(4-acryloylpiperazin-1-yl)-11-(3-chloro-4-fluorophenyl)-3-methoxy-10-(trifluoromethyl)-3,4-dihydro-2H,6H-[1,4]thiazepino[2,3,4-ij]quinazolin-6-one] | 97 | –
C=CC(=O)N1CCN(c2nc(=O)n3c4c(c(-c5ccc(F)c(Cl)c5)c(C(F)(F)F)cc24)SC[C@@H](OC)C3)CC1 [Example 1042, (S)-8-(4-acryloylpiperazin-1-yl)-11-(3-chloro-4-fluorophenyl)-3-methoxy-10-(trifluoromethyl)-3,4-dihydro-2H,6H-[1,4]thiazepino[2,3,4-ij]quinazolin-6-one] | 97 | –
C=CC(=O)N1CCN(c2nc(=O)n3c4c(c(-c5ccc(F)c(Cl)c5)c(C(F)(F)F)cc24)SC[C@H](OC)C3)CC1 [Example 1043, (R)-8-(4-acryloylpiperazin-1-yl)-11-(3-chloro-4-fluorophenyl)-3-methoxy-10-(trifluoromethyl)-3,4-dihydro-2H,6H-[1,4]thiazepino[2,3,4-ij]quinazolin-6-one] | 97 | –
C=CC(=O)N1[C@H](C)CN(c2nc(=O)n3c4c(c(-c5ccc(F)c(Cl)c5)c(C(F)(F)F)cc24)SC[C@H](OC)C3)C[C@@H]1C [Example 1045, (R)-8-((3S,5R)-4-acryloyl-3,5-dimethylpiperazin-1-yl)-11-(3-chloro-4-fluorophenyl)-3-methoxy-10-(trifluoromethyl)-3,4-dihydro-2H,6H-[1,4]thiazepino[2,3,4-ij]quinazolin-6-one] | 96 | –
C=CC(=O)N1[C@H](C)CN(c2nc(=O)n3c4c(c(-c5ccc(F)c(Cl)c5)c(C(F)(F)F)cc24)SC[C@@H](OC)C3)C[C@@H]1C [Example 1046, (S)-8-((3S,5R)-4-acryloyl-3,5-dimethylpiperazin-1-yl)-11-(3-chloro-4-fluorophenyl)-3-methoxy-10-(trifluoromethyl)-3,4-dihydro-2H,6H-[1,4]thiazepino[2,3,4-ij]quinazolin-6-one] | 96 | –
C=CC(=O)N1[C@H](C)CN(c2nc(=O)n3c4c(c(-c5cc(Cl)c(F)cc5F)c(C(F)(F)F)cc24)SCC2(COC2)C3)C[C@@H]1C [Example 1100, 8′-((3S,5R)-4-acryloyl-3,5-dimethylpiperazin-1-yl)-11′-(5-chloro-2,4-difluorophenyl)-10′-(trifluoromethyl)-2′H,4′H,6′H-spiro[oxetane-3,3′-[1,4]thiazepino [2,3,4-ij]quinazolin]-6′-one] | – | 88.8
C=CC(=O)N1[C@H](C)CN(c2nc(=O)n3c4c(c(-c5ccc(F)cc5)c(C(F)(F)F)cc24)SC[C@@H]3COC)C[C@@H]1C [Example 1103, (S)-7-((3S,5R)-4-acryloyl-3,5-dimethylpiperazin-1-yl)-10-(4-fluorophenyl)-3-(methoxymethyl)-9-(trifluoromethyl)-2,3-dihydro-5H-[1,4]thiazino[2,3,4-ij]quinazolin-5-one] | – | 98
C=CC(=O)N1[C@H](C)CN(c2nc(=O)n3c4c(c(-c5ccc(F)cc5F)c(C(F)(F)F)cc24)SCC2(CN(CC)C2)C3)C[C@@H]1C [Example 1104, 8-((3S,5R)-4-acryloyl-3,5-dimethylpiperazin-1-yl)-11-(2,4-difluorophenyl)-1′-ethyl-10-(trifluoromethyl)-2H-spiro[[1,4]thiazepino[2,3,4-ij]quinazoline-3,3′-azetidin]-6(4H)-one] | – | 97.2
C=CC(=O)N1[C@H](C)CN(c2nc(=O)n3c4c(c(-c5cc(Cl)c(F)cc5F)c(C(F)(F)F)cc24)SC[C@H](N2CCOCC2)C3)C[C@@H]1C [Example 1105, (3R)-8-((3S,5R)-4-acryloyl-3,5-dimethylpiperazin-1-yl)-11-(5-chloro-2,4-difluorophenyl)-3-morpholino-10-(trifluoromethyl)-3,4-dihydro-2H,6H-[1,4]thiazepino [2,3,4-ij]quinazolin-6-one] | – | 95.6
C=CC(=O)N1CCN(c2nc(=O)n3c4c(c(-c5ccc(F)cc5)c(C(F)(F)F)cc24)SC[C@@H]3COC)CC1 [Example 1106, (S)-7-(4-acryloylpiperazin-1-yl)-10-(4-fluorophenyl)-3-(methoxymethyl)-9-(trifluoromethyl)-2,3-dihydro-5H-[1,4]thiazino[2,3,4-ij]quinazolin-5-one] | – | 98.2
C=CC(=O)N1C[C@H](C)N(c2nc(=O)n3c4c(c(-c5ccc(F)cc5)c(C(F)(F)F)cc24)SCC2(COC2)C3)C[C@H]1C [Example 1111, 8′-((2S,5R)-4-acryloyl-2,5-dimethylpiperazin-1-yl)-11′-(4-fluorophenyl)-10′-(trifluoromethyl)-2′H,4′H,6′H-spiro[oxetane-3,3′-[1,4]thiazepino [2,3,4-ij]quinazolin]-6′-one] | – | 95.4
C=CC(=O)N1[C@H](C)CN(c2nc(=O)n3c4c(c(-c5ccc(F)cc5)c(C(F)(F)F)cc24)SC[C@H](N2CCOCC2)C3)C[C@@H]1C [Example 1112, (R)-8-((3S,5R)-4-acryloyl-3,5-dimethylpiperazin-1-yl)-11-(4-fluorophenyl)-3-morpholino-10-(trifluoromethyl)-3,4-dihydro-2H,6H-[1,4]thiazepino [2,3,4-ij]quinazolin-6-one] | – | 92.4
